Results reported in patent US12022831B2, “Synergistic weed control from applications of aminopyralid and clopyralid” (Dow AgroSciences LLC, priority 2012, dated 2024).
Counter-ions that a name gives are not always drawn.

System: honey mesquite (Prosopis glandulosa), weed bayer PRCJG
Experiment: Field trial, post-emergence foliar application, synergistic weed control (canopy control and mortality ratings, Colby's equation)
Format: in vivo
Description: In some embodiments, the damage or injury to the undesired vegetation caused by the compositions and methods disclosed herein is evaluated using a scale from 0% to 100%, when compared with the untreated control vegetation, wherein 0% indicates no damage to the undesired vegetation and 100% indicates complete destruction of the undesired vegetation.
X=effect in percent using (a) aminopyralid or an agriculturally acceptable salt or ester thereof at an application rate a;
Y=effect in percent using (b) clopyralid or an agriculturally acceptable salt or ester thereof at an application rate b;
E=expected effect (in %) of (a)+(b) at application rates a and b.
In Colby's equation, the value E corresponds to the effect (plant damage or injury) that is to be expected if the activity of the individual compounds is additive. If the observed effect is higher than the value E calculated according to the Colby equation, then a synergistic effect is present according to the Colby equation.
Field trials were conducted with applications made to established grassland with naturally occurring weed populations. The target plants were treated with postemergence foliar applications when they reached two to five feet tall. All treatments were applied using a nonrandomized trial design, with three replications per treatment.
[…] Spray solutions were prepared using an appropriate amount of dilution to form a 2 L aqueous spray solution with active ingredients in single and two way combinations. […] The treated plants were honey mesquite (Prosopis glandulosa). The treated plots and control plots were rated blind at various intervals after application. Ratings were based on a scale of 0-100%, wherein 0% indicates no damage to the canopy of the undesired vegetation and 100% indicates complete destruction of the canopy of undesired vegetation. Dead and live plants were counted and the mortality was calculated as a % of the total number of undesired plants per plot.
Colby's equation was used to determine the herbicidal effects expected from the mixtures, as described above. […] The herbicide tank mix combinations tested, application rates and ratios employed, plant species tested, and results are given below.

SMILES	Mean % weed mortality; Evaluation: % Canopy Control (Aminopyralid TIPA Salt alone 280 gae/ha, 81 days after treatment) [%]	Mean % weed mortality; Evaluation: % Canopy Control (Aminopyralid TIPA Salt alone 280 gae/ha, 82 days after treatment) [%]	Mean % weed mortality; Evaluation: % Mortality (Aminopyralid TIPA Salt alone 280 gae/ha, 385 days after treatment) [%]	Mean % weed mortality; Evaluation: % Mortality (Aminopyralid TIPA Salt alone 280 gae/ha, 386 days after treatment) [%]	Mean % weed mortality; Evaluation: % Canopy Control (Clopyralid MEA Salt alone 560 gae/ha, 82 days after treatment) [%]	Mean % weed mortality; Evaluation: % Mortality (Clopyralid MEA Salt alone 560 gae/ha, 385 days after treatment) [%]	Mean % weed mortality; Evaluation: % Mortality (Clopyralid MEA Salt alone 560 gae/ha, 386 days after treatment) [%]
Nc1cc(Cl)nc(C(=O)O)c1Cl [Aminopyralid TIPA Salt, 4-amino-3,6-dichloro-2-pyridinecarboxylic acid]	22.0	10.0	0	14	–	–	–
O=C(O)c1nc(Cl)ccc1Cl [Clopyralid MEA Salt, 3,6-dichloro-2-pyridinecarboxylic acid]	–	–	–	–	25.0	25	7
